The experiment in a line: Neuroprotective activity against glutamate-induced neurotoxicity in Sprague-Dawley rat cortical cells at 10 uM after 24 hrs by MTT assay relative to control. Format: functional.
Consider `O=c1cc(/C=C/c2ccccc2)oc2cccc(O)c12`, for which the Activity is -11.3%.
For `O=c1cc(CCc2ccccc2)oc2cccc(O)c12` the value was 67%; for `O=c1cc(CCc2ccccc2O)oc2cccc(O)c12`, 63.6%; for `C[C@]12N[C@H](Cc3ccccc31)c1ccccc12.O=C(O)/C=C\C(=O)O` [DIZOCILPINE MALEATE], 82.2%.

The values are drawn from ChEMBL document CHEMBL1157261, “Neuroprotective 2-(2-phenylethyl)chromones of Imperata cylindrica” (2006).
